The results in this text go back to patent US11339147B2, “Lactam compound as FXR receptor agonist” (CSPC ZHONGQI PHARMACEUTICAL TECHNOLOGY (SHIJIAZHUANG) CO., …, priority 2017, dated 2022).

Molecules are shown by their SMILES. pEC50: −log10 of the molar value.

Assay [1] deals with NASH model. Put plainly: In vivo efficacy test: NASH model in mice by high-fat diet feeding and CCl4 induction. The arrangement: species or system C57/BL6 mice. Particulars: intragastric once a day for 28 days; for gene expression of collagen-alpha in the liver: FIG. 3; for total cholesterol (TC) and triglyceride (TG) levels in the liver: FIG. 2. An excerpt:
In this test, NASH model was established on mice by two procedures of high-fat diet feeding and CCl4 induction to test the effects of compounds on treating NASH. Briefly, the modeling process includes feeding C57/BL6 mice with high-fat diet to induce obesity in mice and produce non-alcoholic fatty liver disease; selecting 40 obese mice with a body weight >35 g when >80% of mice reached 35 g or more, continuously feeding with high-fat diet while intraperitoneal injection of CCl4 twice a week for four weeks; as for 10 normal animals in the same batch, feeding intraperitoneally with olive oil as a healthy control. The day when CCl4 feeding was started was set to the 0th day, and the time when CCl4 feeding was started was set to 0th hour. On the day when CCl4 feeding was started, the intragastric administration was started, 5 mL/kg once a day for 4 weeks, namely 28 days. Test doses of the compound were 15 mg/kg, 30 mg/kg, 60 mg/kg, respectively; healthy control and vehicle control were given vehicle 1% hydroxypropyl methylcellulose (HPMC). During the whole experiment period, the animals were weighed and their health was monitored every day. If there are special circumstances, the relevant project leader should be notified in time and the corresponding records should be made. On the 28th day, after all the animals were weighed, they were euthanized after narcotizing and blood collecting, and the liver was taken. After the blood sample was processed into serum, ALT/AST/TG/TC were tested; for parts of the liver samples, liver TG and TC and the relative expression of collagen-1 alpha gene were tested, and for the other part, liver samples was taken for pathological analysis.

Assay [2] deals with T1, glutathione-S-transferase-labeled FXR human protein (Homo sapiens, UniProt Q96RI1).
T1 construct: purchased Invitrogen
T1 sequence (Q96RI1 1-486): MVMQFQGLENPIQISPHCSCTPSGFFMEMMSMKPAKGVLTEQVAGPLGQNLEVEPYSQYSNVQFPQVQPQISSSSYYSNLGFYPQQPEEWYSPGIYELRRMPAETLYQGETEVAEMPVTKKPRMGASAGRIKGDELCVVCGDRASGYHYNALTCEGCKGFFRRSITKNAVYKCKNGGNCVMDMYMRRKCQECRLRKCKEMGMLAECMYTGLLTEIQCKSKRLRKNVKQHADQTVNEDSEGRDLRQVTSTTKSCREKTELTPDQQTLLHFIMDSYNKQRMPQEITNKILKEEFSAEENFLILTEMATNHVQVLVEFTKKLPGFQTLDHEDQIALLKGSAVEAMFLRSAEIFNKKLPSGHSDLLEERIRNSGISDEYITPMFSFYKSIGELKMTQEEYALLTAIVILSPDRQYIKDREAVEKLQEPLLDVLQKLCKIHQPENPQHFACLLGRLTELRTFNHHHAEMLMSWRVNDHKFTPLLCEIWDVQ
As to the kind of experiment: FXR biochemical experiment (alphascreen, coactivator recruitment). Conditions: for pEC50: alphascreen, activation of FXR binding reaction with steroid receptor coactivator, read-out: FXR enzyme activity EC50; for Emax: highest signal relative to reference compound obeticholic acid (Examples 31-47), read-out: FXR enzyme activity Efficacy (activation efficacy percent). How it is done: FXR Biochemical Experiment
To test the effect of the compound on the activation of the FXR binding reaction by a Homogenous Proximity Luminescent Amplified Assay (alphascreen).
1. Protein: glutathione-S-transferase-labeled FXR human protein (Invitrogen)
2. Coactivator: biotin-labeled steroid receptor coactivator (Anaspec)
3. Detection reagent: Homogenous Proximity Luminescent Amplified Assay (alphascreen) detection kit (PerkinElmer)
1. Dilution of compounds: The test compound was prepared as a 40 μM DMSO solution, which was then diluted 3-fold to 10 concentration points. The reference compound was prepared as a 400 μM DMSO solution, and then was 1.5-fold diluted to 10 concentration points. The diluted DMSO solution was added to the micro-wells of a 384-well plate at a volume of 150 nl per well.
2. Glutathione-S-transferase-labeled FXR human protein and biotin-labeled steroid receptor coactivator were prepared to a mixed solution at a concentration of 0.4 nM and 30 nM, respectively. The mixed solution was added to the micro-wells of the 384-well plate at a volume of 15 μL per well, and incubated for 1 hour at room temperature.
3. […] The experiment process was protected from light. It was incubated for 1 hour at room temperature.
4. […] The experiment process was protected from light. It was incubated for 1 hour at room temperature.
5. EC50 test: Envision was used to excite at 680 nm and the […] signal at 520-620 nm was read.
6. Data analysis: Data analysis was conducted using Prism 5.0 to calculate the EC50 value of the activation effect of the compound.

Regarding `O=C(O)c1cnc(N2C(=O)CCc3cc(OCc4c(-c5c(Cl)cccc5Cl)noc4C4CC4)ccc32)c(Cl)c1` [Compound 37], the “blood biochemical ALT/AST indicators” value in assay [1] (15 mg/kg, FIG. 1) is “significant decrease”. Besides, the “gene expression of collagen-alpha in the liver” value in assay [1] (15 mg/kg) and in assay [1] (60 mg/kg) was “significant decrease” in each case. The “nonalcoholic fatty liver score NAFLD (overall evaluation, pathological tissue analysis)” value in assay [1] (15 mg/kg, FIG. 5) was “significant reduction”; in assay [1] (60 mg/kg, FIG. 5), “significant reduction”. The “total cholesterol (TC) and triglyceride (TG) levels in the liver” value in assay [1] (30 mg/kg) and in assay [1] (60 mg/kg) was “significant decrease” each time. Further, in assay [1] (60 mg/kg, FIG. 4), the “liver fibrosis (pathological tissue analysis)” value was “significant reduction”. For the same compound, the “single steatosis, inflammatory molecules and ballooning change” value in assay [1] (60 mg/kg, FIG. 5) is “remarkable efficacy”.
`O=C(O)c1cnc(N2C(=O)CCc3cc(OCc4c(-c5c(Cl)cccc5Cl)noc4C4CC4)ccc32)s1` [Compound 38]: in assay [2], the pEC50 was 6.85 and the Emax amounted to 118%.
Regarding `N#Cc1cc(C(=O)O)ccc1N1C(=O)CCc2cc(OCc3c(-c4c(Cl)cccc4Cl)noc3C3CC3)ccc21` [Compound 39], in assay [2], the pEC50 was 7.46 and the Emax came out at 140%.
On to `O=C(O)c1ccc(N2C(=O)CCc3cc(OCc4c(-c5c(Cl)cccc5Cl)noc4C4CC4)ccc32)nc1` [Compound 40], for which, in assay [2], the pEC50 is 7.24 and the Emax was 117%.
On to `O=C(O)c1cccc(N2C(=O)CCc3cc(OCc4c(-c5c(Cl)cccc5Cl)noc4C4CC4)ccc32)c1` [Compound 41], for which, in assay [2], the pEC50 was 6.35 and the Emax worked out at 95%.
On to `O=C(O)c1cc(N2C(=O)CCc3cc(OCc4c(-c5c(Cl)cccc5Cl)noc4C4CC4)ccc32)ccc1F` [Compound 42], for which, in assay [2], the pEC50 was 6.72 and the Emax amounted to 137%.
`Cc1cc(C(=O)O)cnc1N1C(=O)CCc2cc(OCc3c(-c4c(Cl)cccc4Cl)noc3C3CC3)ccc21` [Compound 43]: in assay [2], the pEC50 was 7.70 and the Emax was found to be 153%.
For `COc1cc(C(=O)O)ccc1N1C(=O)CCc2cc(OCc3c(-c4c(Cl)cccc4Cl)noc3C3CC3)ccc21` [Compound 44], in that order: 7.24 and 117%.
`O=C(O)c1csc(N2C(=O)CCc3cc(OCc4c(-c5c(Cl)cccc5Cl)noc4C4CC4)ccc32)c1` [Compound 45]: in assay [2], the pEC50 is 6.97 and the Emax turned out to be 117%.
As for `O=C(O)c1ccc(N2C(=O)CCc3cc(OCc4c(-c5c(Cl)cccc5Cl)noc4C4CC4)ccc32)s1` [Compound 46], in assay [2], the pEC50 is 7.08 and the Emax came out at 126%.
`O=C(O)c1ccc(N2C(=O)CCc3cc(OCc4c(-c5c(Cl)cccc5Cl)noc4C4CC4)ccc32)cc1O` [Compound 47]: in assay [2], the pEC50 was 7.70 and the Emax is 153%.
